Holding throughout (assay): growth of human tumour cells (NCI), 48 h
Experiment [1] concerns Malme-3M.
The subject of experiment [2] is SF-268.
Experiment [3] deals with SW-620.
Experiment [4] has as its system HOP-62.
In experiment [5] the test system is MDA-MB-435.
Experiment [6] has as its system PC-3.
Experiment [7] deals with K562.
Experiment [8] has as its system OVCAR-8.
Experiment [9] concerns A549.
Experiment [10] relates to SK-OV-3.
Experiment [11] has as its system SN12C.
Experiment [12] concerns CCRF-CEM.
Experiment [13] has as its system SNB-19.
Experiment [14] deals with MDA-MB-231.
The test system of experiment [15] is KM12.
Experiment [16] concerns HL-60.
The subject of experiment [17] is Hs-578T.

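Assay format: 96-well plates, 48-hour exposure. GI50 marks 50% less growth.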 Active and inactive are the calls of the source. Rule as the data show it: active = GI50 up to about 1.1 µM and inactive = higher.

Regarding `C=C(C)C(=O)[C@@]12C(=O)[C@@H](C)CC[C@H]1[C@H](C)C[C@@H]2C=C(C)C`, the GI50 in [1] was 18 µM (inactive); in [2], 17.2 µM (inactive); in experiment [3] it was 20.2 µM (inactive); in experiment [4], 34.4 µM (inactive); in experiment [5], 20.3 µM (inactive); in experiment [6], 24 µM (inactive). Further, the GI50 is 29.6 µM (inactive) in experiment [7]; 30.7 µM (inactive) in [8]; 32.7 µM (inactive) in [9]; 37 µM (inactive) in experiment [10]; 20.8 µM (inactive) in experiment [11]; 23.1 µM (inactive) in experiment [12]. For the same molecule, the values for the GI50 in experiment [13], in [14] and in experiment [15] were 12.6 µM (inactive), 21.9 µM (inactive) and 23.9 µM (inactive), respectively.

As for `CCOC(=O)CCSS(=O)(=O)C(F)(F)F`, the GI50 in [3], in experiment [16], in [4], in [5], in [6] and in experiment [8] was > 100 µM (inactive) each time. Moreover, the GI50 in experiment [9], in experiment [10], in experiment [11], in [12], in experiment [13] and in [15] was > 100 µM (inactive) throughout.

As to `COC(=O)C(C(=O)OC)C1CC(=O)c2c(Br)sc(Br)c21` (stereo unspecified), the GI50 in experiment [1] was 13.4 µM (inactive); in [2], 18.5 µM (inactive); in experiment [3] it was 11.5 µM (inactive); in experiment [16], 21.2 µM (inactive); in [4], 17.3 µM (inactive); in [17], 20.9 µM (inactive). The GI50 is 17.5 µM (inactive) in [5]; 14.2 µM (inactive) in experiment [6]; 21 µM (inactive) in experiment [7]; 16.8 µM (inactive) in [8]; 25 µM (inactive) in experiment [9]; 17.9 µM (inactive) in experiment [10]. The GI50 in [11] is 14.7 µM (inactive); in [12], 4.03 µM (inactive); in [13] it was 20.5 µM (inactive); in [15], 29.2 µM (inactive).

In the case of `Cc1nc2c(sc(=S)n2-c2ccccc2)c(=O)[nH]1`, the GI50 in experiment [1], in experiment [2], in [3], in experiment [16], in experiment [4] and in experiment [7] was > 100 µM (inactive) each time. Further, the GI50 in experiment [8], in [9], in experiment [10], in experiment [12], in experiment [13] and in experiment [15] was > 100 µM (inactive) throughout.

In the case of `O=[N+]([O-])c1ccc(-c2nc3cc([N+](=O)[O-])ccc3[nH]2)cc1`, the GI50 in experiment [1] is 31.3 µM (inactive); in experiment [2], 44.9 µM (inactive); in experiment [3], 41.3 µM (inactive); in experiment [4] it was 31.9 µM (inactive); in [17], 40.5 µM (inactive); in [5], 29.4 µM (inactive). Besides, the GI50 was 16.4 µM (inactive) in experiment [6]; 22.4 µM (inactive) in [8]; 15.1 µM (inactive) in experiment [9]; 34.1 µM (inactive) in [10]; 23.9 µM (inactive) in experiment [11]; 43.1 µM (inactive) in [13]. Also, in experiment [15], the GI50 was 24.8 µM (inactive).

On to `O=c1c(-c2ccc(O)cc2)coc2cc(O)cc(O)c12` [GENISTEIN], for which the GI50 in experiment [1] is > 100 µM (inactive); in [2], > 100 µM (inactive); in experiment [3], 49.2 µM (inactive); in [16], 69.8 µM (inactive); in [17], 65.2 µM (inactive); in experiment [5], > 100 µM (inactive). Further, the GI50 was > 100 µM (inactive) in experiment [6]; > 100 µM (inactive) in experiment [7]; > 100 µM (inactive) in experiment [8]; 62.4 µM (inactive) in experiment [9]; 52.5 µM (inactive) in experiment [11]; > 10 µM (inactive) in [12]. Besides, the figures for the GI50 in [13] and in experiment [15] were 92 µM (inactive) and > 100 µM (inactive), respectively.

Consider `Oc1ccc(-c2nc3cc(C(F)(F)F)ccc3s2)cc1`, for which the GI50 in [1] is 13.6 µM (inactive); in experiment [2], 16.1 µM (inactive); in experiment [3], 20.2 µM (inactive); in experiment [16], 18.1 µM (inactive); in experiment [5], 15.7 µM (inactive); in experiment [6], 14.5 µM (inactive). Besides, the GI50 was 23.9 µM (inactive) in experiment [7]; 15.6 µM (inactive) in experiment [8]; 15.4 µM (inactive) in experiment [9]; 26 µM (inactive) in [10]; 17.7 µM (inactive) in experiment [11]; 12.2 µM (inactive) in experiment [12]. Besides, the GI50 in [13] is 16.7 µM (inactive); in experiment [14] it was 14.2 µM (inactive); in experiment [15] it was 13.1 µM (inactive).

On to `Cc1cc(C)c(S(=O)(=O)N(CCCCN)OCCCN)c(C)c1`, for which the GI50 in experiment [1] was 20.9 µM (inactive); in [2], 18.4 µM (inactive); in experiment [3], 17.9 µM (inactive); in experiment [17], 16 µM (inactive); in experiment [5], 16.6 µM (inactive); in experiment [6], 13.3 µM (inactive). Besides, the GI50 is 13.9 µM (inactive) in [7]; 17.4 µM (inactive) in experiment [8]; 19.3 µM (inactive) in [9]; 16.8 µM (inactive) in experiment [10]; 18.7 µM (inactive) in [11]; 15.7 µM (inactive) in experiment [12]. The GI50 in experiment [13] was 19.6 µM (inactive); in experiment [15], 19.5 µM (inactive).

`CC(=O)OCC1OC(N2C(=O)NC(=O)C3C=C4CCCCC4=CC32)C(OC(C)=O)C1OC(C)=O` (stereo unspecified): the GI50 in experiment [1], in experiment [3], in [16], in experiment [5], in experiment [6] and in experiment [7] was > 100 µM (inactive) each time. For the same molecule, the GI50 in [9], in experiment [10], in experiment [11], in experiment [12], in experiment [13] and in experiment [14] was > 100 µM (inactive) throughout.

With `Nc1nc(N)c2cc(Sc3ccc4nc(N)nc(N)c4c3)ccc2n1`, the GI50 in [2] was 0.136 µM (active); in [16], 0.0533 µM (active); in experiment [4], > 100 µM (inactive); in experiment [17], > 100 µM (inactive); in [5], 0.0522 µM (active); in [7] it was < 0.01 µM (active). Also, the GI50 in [8] is 0.181 µM (active); in [9], < 0.01 µM (active); in [10] it was > 100 µM (inactive); in experiment [12], 0.0194 µM (active); in [13] it was 4.23 µM (inactive); in experiment [14], > 100 µM (inactive). Besides, the GI50 in experiment [15] is 2.15 µM (inactive).

These data come from ChEMBL document CHEMBL1201862, “PubChem BioAssay data set” (2004).
